Results: ChEMBL document CHEMBL1201862, “PubChem BioAssay data set” (2004)
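Grown in 96-well plates, cells were treated for 48 hours with each compound at five concentrations. Insufficient inhibition: endpoint recorded as highest concentration tested. Abbreviation: GI50, concentration required for 50% inhibition of growth.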 Active and inactive are the calls of the source. No stated cut-off is given here; in the data, active = GI50 up to about 1.1 µM and inactive = higher.

How the values were obtained:
Assay in all cases: NCI-60 cell line screen, 48 h
786-0 = tested on: 786-0
A498 = tested on: A498
A549 = tested on: A549
ACHN = tested on: ACHN
BT-549 = tested on: BT-549
CAKI-1 = tested on: CAKI-1
CCRF-CEM = tested on: CCRF-CEM
COLO 205 = tested on: COLO 205
DU-145 = tested on: DU-145
EKVX = tested on: EKVX
HCC 2998 = tested on: HCC 2998
HCT-116 = tested on: HCT-116
HCT-15 = tested on: HCT-15
HL-60 = tested on: HL-60
HOP-62 = tested on: HOP-62
HT-29 = tested on: HT-29
Hs-578T = tested on: Hs-578T
IGROV-1 = tested on: IGROV-1
K562 = tested on: K562
KM12 = tested on: KM12
LOX IMVI = tested on: LOX IMVI
M14 = tested on: M14
MDA-MB-231 = tested on: MDA-MB-231
MDA-MB-435 = tested on: MDA-MB-435
MDA-N = tested on: MDA-N
MOLT-4 = tested on: MOLT-4
Malme-3M = tested on: Malme-3M
NCI-H226 = tested on: NCI-H226
NCI-H23 = tested on: NCI-H23
NCI-H460 = tested on: NCI-H460
NCI-H522 = tested on: NCI-H522
NCI/ADR-RES = tested on: NCI/ADR-RES
OVCAR-3 = tested on: OVCAR-3
OVCAR-4 = tested on: OVCAR-4
OVCAR-5 = tested on: OVCAR-5
OVCAR-8 = tested on: OVCAR-8
PC-3 = tested on: PC-3
RPMI-8226 = tested on: RPMI-8226
RXF 393 = tested on: RXF 393
SF-268 = tested on: SF-268
SF-295 = tested on: SF-295
SF-539 = tested on: SF-539
SK-MEL-28 = tested on: SK-MEL-28
SK-MEL-2 = tested on: SK-MEL-2
SK-MEL-5 = tested on: SK-MEL-5
SK-OV-3 = tested on: SK-OV-3
SN12C = tested on: SN12C
SNB-19 = tested on: SNB-19
SNB-75 = tested on: SNB-75
SW-620 = tested on: SW-620
T47D = tested on: T47D
TK-10 = tested on: TK-10
U-251 = tested on: U-251
UACC-257 = tested on: UACC-257
UACC-62 = tested on: UACC-62
UO-31 = tested on: UO-31
HOP-92 = tested on: HOP-92
MCF7 = tested on: MCF7
SR = tested on: SR

Q: How did the GI50 (786-0) turn out when `CCCCn1cnnc1NS(=O)(=O)c1cc(C)c(Cl)cc1SCC(=O)O` was run?
A: > 10 µM (inactive)

Q: And the GI50 (A498)?
A: > 10 µM (inactive)

Q: And the GI50 (A549)?
A: > 10 µM (inactive)

Q: What about the GI50 (ACHN) of the same compound?
A: > 10 µM (inactive)

Q: What about the GI50 (BT-549) of the same compound?
A: > 10 µM (inactive)

Q: What about the GI50 (CAKI-1) of the same compound?
A: > 10 µM (inactive)

Q: What about the GI50 (CCRF-CEM) of the same compound?
A: > 10 µM (inactive)

Q: And the GI50 (COLO 205)?
A: > 10 µM (inactive)

Q: And the GI50 (DU-145)?
A: > 10 µM (inactive)

Q: And the GI50 (EKVX)?
A: > 10 µM (inactive)

Q: And the GI50 (HCC 2998)?
A: > 10 µM (inactive)

Q: And the GI50 (HCT-116)?
A: > 10 µM (inactive)

Q: What about the GI50 (HCT-15) of the same compound?
A: > 10 µM

Q: And the GI50 (HL-60)?
A: > 10 µM (inactive)

Q: What about the GI50 (HOP-62) of the same compound?
A: > 10 µM (inactive)

Q: And the GI50 (HT-29)?
A: > 10 µM (inactive)

Q: And the GI50 (Hs-578T)?
A: > 10 µM (inactive)

Q: And the GI50 (IGROV-1)?
A: > 10 µM (inactive)

Q: What about the GI50 (K562) of the same compound?
A: > 10 µM (inactive)

Q: What about the GI50 (KM12) of the same compound?
A: > 10 µM (inactive)

Q: What about the GI50 (LOX IMVI) of the same compound?
A: > 10 µM (inactive)

Q: And the GI50 (M14)?
A: > 10 µM (inactive)

Q: What about the GI50 (MDA-MB-231) of the same compound?
A: > 10 µM (inactive)

Q: And the GI50 (MDA-MB-435)?
A: > 10 µM (inactive)

Q: What about the GI50 (MDA-N) of the same compound?
A: > 10 µM (inactive)

Q: What about the GI50 (MOLT-4) of the same compound?
A: > 10 µM (inactive)

Q: And the GI50 (Malme-3M)?
A: > 10 µM (inactive)

Q: What about the GI50 (NCI-H226) of the same compound?
A: > 10 µM (inactive)

Q: What about the GI50 (NCI-H23) of the same compound?
A: > 10 µM (inactive)

Q: And the GI50 (NCI-H460)?
A: > 10 µM (inactive)

Q: And the GI50 (NCI-H522)?
A: > 10 µM (inactive)

Q: What about the GI50 (NCI/ADR-RES) of the same compound?
A: > 10 µM (inactive)

Q: And the GI50 (OVCAR-3)?
A: > 10 µM (inactive)

Q: And the GI50 (OVCAR-4)?
A: > 10 µM (inactive)

Q: And the GI50 (OVCAR-5)?
A: > 10 µM (inactive)

Q: What about the GI50 (OVCAR-8) of the same compound?
A: > 10 µM (inactive)

Q: And the GI50 (PC-3)?
A: > 10 µM (inactive)

Q: What about the GI50 (RPMI-8226) of the same compound?
A: > 10 µM (inactive)

Q: And the GI50 (RXF 393)?
A: > 10 µM (inactive)

Q: And the GI50 (SF-268)?
A: > 10 µM (inactive)

Q: What about the GI50 (SF-295) of the same compound?
A: > 10 µM (inactive)

Q: And the GI50 (SF-539)?
A: > 10 µM (inactive)

Q: What about the GI50 (SK-MEL-28) of the same compound?
A: > 10 µM (inactive)

Q: And the GI50 (SK-MEL-2)?
A: > 10 µM (inactive)

Q: And the GI50 (SK-MEL-5)?
A: > 10 µM (inactive)

Q: And the GI50 (SK-OV-3)?
A: > 10 µM (inactive)

Q: And the GI50 (SN12C)?
A: > 10 µM (inactive)

Q: And the GI50 (SNB-19)?
A: > 10 µM (inactive)

Q: What about the GI50 (SNB-75) of the same compound?
A: > 10 µM (inactive)

Q: And the GI50 (SW-620)?
A: > 10 µM (inactive)

Q: What about the GI50 (T47D) of the same compound?
A: > 10 µM (inactive)

Q: What about the GI50 (TK-10) of the same compound?
A: > 10 µM (inactive)

Q: And the GI50 (U-251)?
A: > 10 µM (inactive)

Q: What about the GI50 (UACC-257) of the same compound?
A: > 10 µM (inactive)

Q: And the GI50 (UACC-62)?
A: > 10 µM (inactive)

Q: And the GI50 (UO-31)?
A: > 10 µM (inactive)

Q: Which results are given for `COc1ccc(CCNC(=O)CCc2ccccc2CO)cc1OC`?
A: GI50 (786-0): > 100 µM (inactive); GI50 (A498): > 100 µM (inactive); GI50 (A549): > 100 µM (inactive); GI50 (ACHN): > 100 µM (inactive); GI50 (BT-549): > 100 µM (inactive); GI50 (CAKI-1): > 100 µM (inactive); GI50 (CCRF-CEM): > 100 µM (inactive); GI50 (COLO 205): > 100 µM (inactive); GI50 (DU-145): > 100 µM (inactive); GI50 (EKVX): > 100 µM (inactive); GI50 (HCC 2998): > 100 µM (inactive); GI50 (HCT-116): > 100 µM (inactive); GI50 (HCT-15): > 100 µM; GI50 (HL-60): > 100 µM (inactive); GI50 (HOP-62): > 100 µM (inactive); GI50 (HOP-92): > 100 µM (inactive); GI50 (HT-29): > 100 µM (inactive); GI50 (Hs-578T): > 100 µM (inactive); GI50 (IGROV-1): > 100 µM (inactive); GI50 (K562): > 100 µM (inactive); GI50 (KM12): > 100 µM (inactive); GI50 (M14): > 100 µM (inactive); GI50 (MCF7): > 100 µM (inactive); GI50 (MDA-MB-231): > 100 µM (inactive); GI50 (MDA-MB-435): > 100 µM (inactive); GI50 (MOLT-4): > 100 µM (inactive); GI50 (NCI-H226): > 100 µM (inactive); GI50 (NCI-H23): > 100 µM (inactive); GI50 (NCI-H460): > 100 µM (inactive); GI50 (NCI-H522): > 100 µM (inactive); GI50 (NCI/ADR-RES): > 100 µM (inactive); GI50 (OVCAR-3): > 100 µM (inactive); GI50 (OVCAR-4): > 100 µM (inactive); GI50 (OVCAR-5): > 100 µM (inactive); GI50 (OVCAR-8): > 100 µM (inactive); GI50 (PC-3): > 100 µM (inactive); GI50 (RPMI-8226): > 100 µM (inactive); GI50 (RXF 393): > 100 µM (inactive); GI50 (SF-268): > 100 µM (inactive); GI50 (SF-295): > 100 µM (inactive); GI50 (SF-539): > 100 µM (inactive); GI50 (SK-MEL-28): > 100 µM (inactive); GI50 (SK-MEL-2): > 100 µM (inactive); GI50 (SK-MEL-5): > 100 µM (inactive); GI50 (SK-OV-3): > 100 µM (inactive); GI50 (SN12C): > 100 µM (inactive); GI50 (SNB-19): > 100 µM (inactive); GI50 (SNB-75): > 100 µM (inactive); GI50 (SR): > 100 µM (inactive); GI50 (SW-620): > 100 µM (inactive); GI50 (T47D): > 100 µM (inactive); GI50 (TK-10): > 100 µM (inactive); GI50 (U-251): > 100 µM (inactive); GI50 (UACC-257): > 100 µM (inactive); GI50 (UACC-62): > 100 µM (inactive); GI50 (UO-31): > 100 µM (inactive)
